The record followed here is patent US20150119251A1, “AGRICULTURAL PLANT-PROTECTING AGENTS CONTAINING DIPEPTIDE DERIVATIVE AS ACTIVE INGREDIENT” (REPUBLIC OF KOREA (RURAL DEVELOPMENT ADMINISTRATION), priority 2012, published 2015).

The subject of assay [1] is pepper phytophthora blight (Phytopthora capsici). The assay is described as follows: Suppression of pepper phytophthora blight on leaves. Format: in vivo. The following applies: 0.1 mM.
The test system of assay [2] is tobacco bacterial rot (Pectobacterium carotovorum). The assay is described as follows: Suppression of tobacco bacterial rot. Format: in vivo, Pectobacterium carotovorum SCC1. The procedure, abridged:
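Test compounds at 1, 10 and 100 ppm (from 20% methanol stock) were applied to tobacco leaves; 7 days later plants were sprayed with Pectobacterium carotovorum SCC1 at 10^8 cfu/mL and kept 3 days at 30° C. Lesion area scored visually as 0–100%.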

Assay [3] concerns GUS gene induced by PR-1α disease-resistance promoter. The assay is described as follows: PR-1a GUS activation on tobacco leaves (MUG fluorescence). The note with it: 0.1 mM, tobacco leaf injection, after three days. Format: in vivo, tobacco (Xanth-nc). As to the method:
After the tobacco (Xanth-nc) bound with GUS gene induced by PR-1α disease-resistance promoter was grown for 3 weeks, 100 μL of the diluted solution of Compound 74 was injected to second leaves with a syringe. After three days, the surrounding leaves were collected in an internal diameter size of 5 mm with a cork borer, the samples thus obtained were added to a 1.5 mL of an eppendorf tube, and 20 μL of GUS extraction buffer solution was further added, ground, and then centrifuged at 8000 G for 3 minutes to obtain supernatant. The same amount of 2 mM MUG (4-methyl umbellifryl-B-glucuronide) solution was added, reacted at 37° C. for 1 hour, and then 960 μL of stop buffer solution (0.2 M, Na2CO3 solution) was added to be 1 mL. Since then, the fluorescence was measured with a TKO 100 fluorometer (Hoefoer Scientific Instruments, USA). At this time, the fluorescence amount was calibrated using a MU (4-methyl umbellyferon) as a standard reagent, and the GUS activity was calculated using MU-mM/sample−10 mg/time. The results thus obtained are listed in the following Table 2 and illustrated in FIG. 2.

For `CSC(=O)c1cccc2nnsc12` [BTH, benzo-1,2,3-thiadiazole-7-carbothio acid S-methyl ester, reference compound], the Lesion outbreak rate in assay [1] is recorded as 17 area %; in assay [2] (Table 3, tobacco, 1 ppm) it was 90%; in assay [2] (Table 3, tobacco, 10 ppm), 90%; in assay [2] (Table 3, tobacco, 100 ppm), 90%; in assay [2] (Table 4, tobacco, 1 ppm), 88%; in assay [2] (Table 4, tobacco, 10 ppm) it was 88%. The Lesion outbreak rate was found to be 88% in assay [2] (Table 4, tobacco, 100 ppm); 25% in assay [2] (Table 5, tobacco, 10 ppm); 25% in assay [2] (Table 5, tobacco, 100 ppm); 100% in assay [2] (Table 6, tobacco, 1 ppm); 100% in assay [2] (Table 6, tobacco, 10 ppm); 100% in assay [2] (Table 6, tobacco, 100 ppm). The “PR1a GUS expression” value in assay [3] was 324,000 nM MU/10 mg FW/1 hr.
